Assay [1] addresses Ribosomal protein S6 kinase alpha-1 (Homo sapiens, UniProt Q15418). The assay is described as follows: Selectivity interaction (Kinase panel (KiNativ target engagement assay in Jurkat cells)) EUB0001635a RPS6KA1. The conditions noted are these: Selectivity number of off-targets 0.0, Selectivity number of targets 233.0, Source Knowledge https://www.sciencedirect.com/science/article/pii/S2451945619300674?via%3Dihub, at 1 µM. The assay is classed as cell-based.

In assay [2] the target is TGF-beta receptor type-2 (Homo sapiens) (UniProt P37173). Description: Selectivity interaction (Ambit KINOMEscan and KiNATiv profiling in Jurkat cells) EUB0000090b TGFBR2. The conditions noted are these: at 1 µM. The assay is classed as cell-based.
For assay [3], the target named is T1, Ephrin type-B receptor 3 (Homo sapiens) (UniProt P54753).
T1 sequence (whole entry): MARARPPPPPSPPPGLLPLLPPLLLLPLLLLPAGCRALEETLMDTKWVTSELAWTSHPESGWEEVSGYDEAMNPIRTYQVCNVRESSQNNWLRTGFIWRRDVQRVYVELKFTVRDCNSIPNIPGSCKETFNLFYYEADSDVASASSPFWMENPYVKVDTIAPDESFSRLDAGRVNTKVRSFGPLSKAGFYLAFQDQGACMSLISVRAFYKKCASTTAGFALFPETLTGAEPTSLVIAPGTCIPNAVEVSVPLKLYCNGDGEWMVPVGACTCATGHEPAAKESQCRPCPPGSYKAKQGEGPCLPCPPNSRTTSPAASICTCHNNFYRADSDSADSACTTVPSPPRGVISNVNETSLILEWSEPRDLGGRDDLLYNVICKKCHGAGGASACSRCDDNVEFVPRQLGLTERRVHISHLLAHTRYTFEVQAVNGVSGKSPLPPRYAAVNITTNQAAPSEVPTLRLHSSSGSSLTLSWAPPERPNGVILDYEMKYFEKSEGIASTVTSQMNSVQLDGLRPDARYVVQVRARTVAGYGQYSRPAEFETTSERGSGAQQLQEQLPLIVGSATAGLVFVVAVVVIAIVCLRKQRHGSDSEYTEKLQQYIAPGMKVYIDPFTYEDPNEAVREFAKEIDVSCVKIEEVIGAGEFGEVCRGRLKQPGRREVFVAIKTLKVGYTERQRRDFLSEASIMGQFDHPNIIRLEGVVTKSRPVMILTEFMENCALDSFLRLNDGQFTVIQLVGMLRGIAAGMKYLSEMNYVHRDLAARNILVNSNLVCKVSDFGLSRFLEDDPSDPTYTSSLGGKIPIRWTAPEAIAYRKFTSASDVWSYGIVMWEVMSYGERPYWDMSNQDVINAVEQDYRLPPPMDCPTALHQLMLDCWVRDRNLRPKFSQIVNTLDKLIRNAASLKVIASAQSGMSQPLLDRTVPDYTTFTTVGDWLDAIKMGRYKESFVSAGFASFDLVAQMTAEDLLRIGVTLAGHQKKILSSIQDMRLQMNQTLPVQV
The assay is described as follows: Selectivity interaction (Ambit KINOMEscan and KiNATiv profiling in Jurkat cells) EUB0000090b EPHB3. The assay is classed as cell-based. The conditions noted are these: at 1 µM.

Assay [4] addresses Serine/threonine-protein kinase pim-3 (Homo sapiens) (UniProt Q86V86). Description: Selectivity interaction (Kinase panel (DSF assay)) EUB0001558a PIM3. (DSF heats the sample and reads unfolding from a dye or from intrinsic fluorescence.)
Assay [5] addresses Serine/threonine-protein kinase Nek7 (Homo sapiens) (UniProt Q8TDX7). The assay is described as follows: Selectivity interaction (KinomeScan (DiscoverX)) EUB0000655a NEK7. The conditions noted are these: at 10 µM.
Assay [6] addresses T2, cGMP-dependent protein kinase 2 (Homo sapiens) (UniProt Q13237).
T2 sequence (whole entry): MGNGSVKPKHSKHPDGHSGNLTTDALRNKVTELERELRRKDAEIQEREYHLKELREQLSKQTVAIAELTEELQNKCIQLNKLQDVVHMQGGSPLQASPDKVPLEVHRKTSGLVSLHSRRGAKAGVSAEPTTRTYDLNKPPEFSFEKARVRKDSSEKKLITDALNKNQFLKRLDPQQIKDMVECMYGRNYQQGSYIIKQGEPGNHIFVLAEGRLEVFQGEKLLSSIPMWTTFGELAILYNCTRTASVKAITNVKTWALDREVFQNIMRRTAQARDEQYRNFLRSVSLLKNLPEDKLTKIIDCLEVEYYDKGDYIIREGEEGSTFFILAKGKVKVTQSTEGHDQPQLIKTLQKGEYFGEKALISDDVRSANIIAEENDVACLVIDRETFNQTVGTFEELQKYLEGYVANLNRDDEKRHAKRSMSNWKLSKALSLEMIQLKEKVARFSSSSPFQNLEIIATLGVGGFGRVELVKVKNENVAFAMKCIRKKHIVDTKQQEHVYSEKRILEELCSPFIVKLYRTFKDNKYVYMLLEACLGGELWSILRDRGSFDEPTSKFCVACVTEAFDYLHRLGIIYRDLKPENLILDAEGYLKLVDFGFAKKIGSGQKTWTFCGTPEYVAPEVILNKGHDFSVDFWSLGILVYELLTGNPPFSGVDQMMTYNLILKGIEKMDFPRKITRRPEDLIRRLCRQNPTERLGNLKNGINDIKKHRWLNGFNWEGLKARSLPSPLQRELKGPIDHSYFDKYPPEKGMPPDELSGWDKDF
Description: Selectivity interaction (KinomeScan (DiscoverX)) EUB0000655a PRKG2. The settings on record: at 10 µM.

Assay [7] has as its target Ribosomal protein S6 kinase beta-1 (Homo sapiens, UniProt P23443). Description: Selectivity interaction (KinomeScan (DiscoverX)) EUB0000655a RPS6KB1. The settings on record: at 10 µM.
Assay [8] has as its target Ephrin type-A receptor 2 (Homo sapiens) (UniProt P29317). Description: Selectivity interaction (KinomeScan (DiscoverX)) EUB0000655a EPHA2. The conditions noted are these: at 10 µM.
The target of assay [9] is Cyclin-dependent kinase 17 (Homo sapiens) (UniProt Q00537). Description: Selectivity interaction (KinomeScan (DiscoverX)) EUB0000045b CDK17.
Assay [10] deals with Calcium/calmodulin-dependent protein kinase type II subunit beta (Homo sapiens) (UniProt Q13554). The assay is described as follows: Selectivity interaction (KinomeScan (DiscoverX)) EUB0000595a CAMK2B. The conditions noted are these: at 10 µM.

Each structure is given as a SMILES string.

Cyclin-dependent kinase 17 (Homo sapiens), sequence (Q00537 whole entry, looked up): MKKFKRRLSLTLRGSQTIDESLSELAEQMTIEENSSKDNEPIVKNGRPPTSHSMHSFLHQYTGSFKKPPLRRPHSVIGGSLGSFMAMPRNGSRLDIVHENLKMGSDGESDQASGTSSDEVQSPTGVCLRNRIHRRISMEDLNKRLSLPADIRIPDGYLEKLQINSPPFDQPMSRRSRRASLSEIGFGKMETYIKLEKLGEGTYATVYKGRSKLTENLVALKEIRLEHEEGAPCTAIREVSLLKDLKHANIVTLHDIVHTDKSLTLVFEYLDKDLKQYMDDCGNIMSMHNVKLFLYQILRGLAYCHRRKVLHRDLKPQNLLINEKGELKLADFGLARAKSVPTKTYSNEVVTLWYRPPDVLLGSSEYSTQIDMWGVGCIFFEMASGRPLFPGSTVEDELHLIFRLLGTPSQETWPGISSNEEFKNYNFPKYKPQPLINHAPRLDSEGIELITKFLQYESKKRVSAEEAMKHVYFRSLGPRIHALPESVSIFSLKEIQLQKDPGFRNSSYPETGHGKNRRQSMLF
Ribosomal protein S6 kinase beta-1, sequence (P23443 whole entry, looked up): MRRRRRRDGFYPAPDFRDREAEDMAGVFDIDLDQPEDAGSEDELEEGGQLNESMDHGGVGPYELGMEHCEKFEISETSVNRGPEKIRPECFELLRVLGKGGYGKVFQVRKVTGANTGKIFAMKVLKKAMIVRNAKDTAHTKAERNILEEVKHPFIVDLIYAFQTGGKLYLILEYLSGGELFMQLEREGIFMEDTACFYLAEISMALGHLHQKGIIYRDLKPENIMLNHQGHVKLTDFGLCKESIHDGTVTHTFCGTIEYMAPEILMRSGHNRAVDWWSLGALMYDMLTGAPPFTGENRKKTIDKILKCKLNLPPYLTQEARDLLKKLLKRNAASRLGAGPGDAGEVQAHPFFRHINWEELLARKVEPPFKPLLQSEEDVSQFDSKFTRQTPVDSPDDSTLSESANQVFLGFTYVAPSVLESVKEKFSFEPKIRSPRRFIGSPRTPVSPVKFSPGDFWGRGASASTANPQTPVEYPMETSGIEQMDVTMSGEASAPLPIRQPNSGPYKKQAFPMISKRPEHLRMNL
Ribosomal protein S6 kinase alpha-1, sequence (Q15418 whole entry): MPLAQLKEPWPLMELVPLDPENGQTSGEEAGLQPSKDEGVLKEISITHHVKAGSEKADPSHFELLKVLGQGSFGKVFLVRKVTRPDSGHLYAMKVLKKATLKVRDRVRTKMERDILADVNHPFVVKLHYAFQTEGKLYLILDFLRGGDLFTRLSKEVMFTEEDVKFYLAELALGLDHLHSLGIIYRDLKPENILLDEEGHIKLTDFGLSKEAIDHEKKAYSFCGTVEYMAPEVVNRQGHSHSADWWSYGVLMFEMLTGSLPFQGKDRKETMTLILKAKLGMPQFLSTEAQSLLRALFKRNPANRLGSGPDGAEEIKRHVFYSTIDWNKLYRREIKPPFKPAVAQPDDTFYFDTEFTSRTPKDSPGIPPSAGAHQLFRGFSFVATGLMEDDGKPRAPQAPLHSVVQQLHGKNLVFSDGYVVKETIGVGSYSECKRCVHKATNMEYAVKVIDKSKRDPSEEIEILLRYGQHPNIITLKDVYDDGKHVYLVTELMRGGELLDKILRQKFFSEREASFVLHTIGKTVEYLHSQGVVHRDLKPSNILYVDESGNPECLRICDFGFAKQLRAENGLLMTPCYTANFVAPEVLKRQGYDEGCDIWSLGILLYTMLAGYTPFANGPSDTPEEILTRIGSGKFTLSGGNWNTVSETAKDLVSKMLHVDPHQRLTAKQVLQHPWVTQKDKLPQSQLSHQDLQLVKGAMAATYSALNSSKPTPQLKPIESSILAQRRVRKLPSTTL
Calcium/calmodulin-dependent protein kinase type II subunit beta (Homo sapiens), sequence (Q13554 whole entry): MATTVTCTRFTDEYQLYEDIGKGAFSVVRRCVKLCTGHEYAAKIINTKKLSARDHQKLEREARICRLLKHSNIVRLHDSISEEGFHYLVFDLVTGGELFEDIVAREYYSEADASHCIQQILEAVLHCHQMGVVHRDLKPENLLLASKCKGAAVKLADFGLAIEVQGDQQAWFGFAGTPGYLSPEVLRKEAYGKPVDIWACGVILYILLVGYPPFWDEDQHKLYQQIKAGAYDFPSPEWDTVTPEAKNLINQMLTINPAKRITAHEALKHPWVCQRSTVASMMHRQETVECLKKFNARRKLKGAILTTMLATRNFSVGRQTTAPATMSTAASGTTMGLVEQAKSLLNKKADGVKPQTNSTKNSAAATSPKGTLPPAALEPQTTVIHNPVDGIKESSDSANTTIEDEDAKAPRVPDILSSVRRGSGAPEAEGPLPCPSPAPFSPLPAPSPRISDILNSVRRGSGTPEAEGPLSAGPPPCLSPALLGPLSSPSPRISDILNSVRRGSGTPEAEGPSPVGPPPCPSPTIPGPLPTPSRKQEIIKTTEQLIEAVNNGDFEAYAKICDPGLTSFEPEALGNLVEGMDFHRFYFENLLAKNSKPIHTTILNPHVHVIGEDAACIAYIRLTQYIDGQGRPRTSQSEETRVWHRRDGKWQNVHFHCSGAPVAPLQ
Ephrin type-A receptor 2 (Homo sapiens), sequence (P29317 whole entry): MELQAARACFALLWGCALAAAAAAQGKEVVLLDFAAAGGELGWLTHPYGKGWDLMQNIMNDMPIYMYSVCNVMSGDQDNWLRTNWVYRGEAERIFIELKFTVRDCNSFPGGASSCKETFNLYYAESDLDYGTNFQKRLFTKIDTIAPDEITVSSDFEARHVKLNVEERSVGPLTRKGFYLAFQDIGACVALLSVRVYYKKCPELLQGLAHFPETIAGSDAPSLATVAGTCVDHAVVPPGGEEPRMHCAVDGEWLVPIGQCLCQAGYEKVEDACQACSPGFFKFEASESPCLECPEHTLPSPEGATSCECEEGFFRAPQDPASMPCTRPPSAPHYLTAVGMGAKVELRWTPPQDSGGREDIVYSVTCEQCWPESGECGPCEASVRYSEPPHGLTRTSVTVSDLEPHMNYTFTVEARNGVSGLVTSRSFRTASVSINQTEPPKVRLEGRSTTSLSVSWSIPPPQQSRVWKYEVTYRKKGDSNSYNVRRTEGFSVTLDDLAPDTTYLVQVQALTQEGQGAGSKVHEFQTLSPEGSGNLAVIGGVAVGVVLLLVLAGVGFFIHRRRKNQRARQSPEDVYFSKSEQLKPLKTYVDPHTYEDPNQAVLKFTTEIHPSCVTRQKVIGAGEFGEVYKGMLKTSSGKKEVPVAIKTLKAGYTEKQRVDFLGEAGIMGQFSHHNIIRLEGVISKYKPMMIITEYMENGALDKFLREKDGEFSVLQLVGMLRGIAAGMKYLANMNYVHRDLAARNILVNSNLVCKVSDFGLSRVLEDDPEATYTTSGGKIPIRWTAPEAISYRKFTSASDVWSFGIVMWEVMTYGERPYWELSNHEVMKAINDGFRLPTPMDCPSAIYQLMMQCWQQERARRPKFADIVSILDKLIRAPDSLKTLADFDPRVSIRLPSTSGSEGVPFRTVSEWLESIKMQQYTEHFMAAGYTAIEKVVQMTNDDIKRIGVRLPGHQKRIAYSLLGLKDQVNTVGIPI
TGF-beta receptor type-2 (Homo sapiens), sequence (P37173 whole entry): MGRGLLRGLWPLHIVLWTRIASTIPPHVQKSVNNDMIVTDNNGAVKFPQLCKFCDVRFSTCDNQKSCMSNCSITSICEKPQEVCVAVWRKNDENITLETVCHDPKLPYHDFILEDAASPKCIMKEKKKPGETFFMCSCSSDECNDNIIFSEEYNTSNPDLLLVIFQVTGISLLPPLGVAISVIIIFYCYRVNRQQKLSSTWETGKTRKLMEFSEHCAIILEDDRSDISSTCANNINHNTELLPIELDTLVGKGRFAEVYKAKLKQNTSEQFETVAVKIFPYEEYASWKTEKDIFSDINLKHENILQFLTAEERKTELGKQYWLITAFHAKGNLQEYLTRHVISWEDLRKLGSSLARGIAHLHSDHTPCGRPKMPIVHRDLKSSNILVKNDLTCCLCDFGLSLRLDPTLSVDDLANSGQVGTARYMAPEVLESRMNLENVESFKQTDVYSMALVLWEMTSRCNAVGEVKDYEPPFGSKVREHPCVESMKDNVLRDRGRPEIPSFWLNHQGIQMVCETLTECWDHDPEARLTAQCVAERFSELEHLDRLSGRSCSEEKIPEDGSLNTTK
Serine/threonine-protein kinase Nek7 (Homo sapiens), sequence (Q8TDX7 whole entry, looked up): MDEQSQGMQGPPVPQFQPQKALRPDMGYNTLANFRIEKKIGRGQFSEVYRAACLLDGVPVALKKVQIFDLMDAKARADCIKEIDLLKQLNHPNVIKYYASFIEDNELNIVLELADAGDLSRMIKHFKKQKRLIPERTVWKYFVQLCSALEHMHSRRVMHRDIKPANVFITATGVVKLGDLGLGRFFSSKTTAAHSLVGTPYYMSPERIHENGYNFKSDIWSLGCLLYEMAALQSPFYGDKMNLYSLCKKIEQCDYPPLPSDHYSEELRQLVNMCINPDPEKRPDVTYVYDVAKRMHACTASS

In [1], `C=CC(=O)Nc1ccc(C(=O)Nc2[nH]nc3c2CN(C(=O)N[C@H](CN(C)C)c2ccccc2)C3(C)C)cc1` returned a % of engagement of 14.4%.

Regarding `CN(C)C/C=C/C(=O)Nc1ccc(C(=O)N2CCCC(Nc3ncc(Cl)c(-c4c[nH]c5ccccc45)n3)C2)cc1` (stereo unspecified), the % of control is 87% in assay [2] and 93% in assay [3]. With `CC(C)(O)[C@H](F)CN1Cc2cc(NC(=O)c3cnn4cccnc34)c(N3CCOCC3)cc2C1=O`, the dTM in assay [4] came to 1 K. With `CN(C)CCOc1ccc(-c2nc(-c3ccncc3)c(-c3ccc4c(c3)CC/C4=N\O)[nH]2)cc1`, the % of control in assay [5] was 100%; in assay [6], 29%; in [7], 85%; in [8], 83%. For `C=CC(=O)Nc1cc(-n2c(=O)ccc3cnc4ccc(-c5ccc(NS(C)(=O)=O)cc5)cc4c32)ccc1C`, the % of control turned out to be 100% in assay [9] (at 1 µM) and 95% in assay [9] (at 10 µM). As for `COCC(=O)NC/C=C/c1ccc2ncnc(Nc3ccc(Oc4ccc(C)nc4)c(C)c3)c2c1` [CP-724714], the % of control in [10] is 88%.

The values above are taken from ChEMBL document CHEMBL5465560, “Selectivity Literature for EUbOPEN Chemogenomic Library” (2024).
